Consider one compound from patent US9855239B2, “Methods for the treatment and prevention of age-related retinal dysfunction” (University of Washington, priority 2008, dated 2018).

Entries after “also recorded” stand apart in the source; their conditions may differ.

Series [1] concerns C57BL/6 female mice. The series can be described thus: Single-flash ERG after single dose treatment, bleach and dark adaptation. Type of series: in vivo, mouse. Conditions: single dose ~80 mg/kg gavage, 10-month-old mice, 20 min bleach at 500 cd·m^−2, 16 hr dark adaptation; vs control (a-waves P<0.01). The protocol:
Forty eight hr dark-adapted, 10-month-old mice were gavaged with a single dose (˜80 mg/kg body weight) of 9-cis-R-Ac or control vehicle and exposed to strong illumination for 20 min (500 cd·m^−2 that bleached ˜90% rhodopsin). Next, mice were dark-adapted for 16 hr after which various analyses were performed (FIG. 1A). […] To investigate whether 9-cis-retinal was utilized to form isorhodopsin and to assess how much unliganded opsin was present in the mouse eyes, rhodopsin, isorhodopsin and opsin were purified by immunoaffinity chromatography from treated and control groups of mice. […] After bleaching, 9-cis-retinal is bound to opsin even in the presence of a functional retinoid cycle that produces 11-cis-retinal to regenerate rhodopsin. Eyes from non-bleached or bleached and dark-adapted untreated mice contained a small amount of free opsin.
9-cis-R-Ac was prepared as previously described (Batten, M. L., et al. PLoS medicine 2, e333 (2005); Batten, M. L., et al. J Biol Chem 279, 10422-10432 (2004)). A dose of ˜80 mg/kg body weight of 9-cis-R-Ac in 150 μl vegetable oil was administered via gavage to each treated animal. […]
(§1) ERGs of anesthetized mice were recorded as previously reported.

For series [2] the following is noted: mouse, in vivo.
Experimental: Animals were evaluated weekly for activity and changes in coat and skin appearance.
For the long-term study (FIGS. 1B and 1C, Table 1), mice were obtained at 3 months of age and raised until 4 months of age before the experiments were initiated. Mice then were gavaged with 9-cis-R-Ac or vehicle solution once a month for different durations. Six groups of mice were studied (FIG. 1B). The first 3 groups (C0 C1 and C2, total n=35 for each group) were treated as controls and tested at 4, 10 and 14 months of age. The other 3 groups (N1, N2 and N3, n=35) were gavaged with 9-cis-R-Ac. Group N1 was gavaged for 6 months and tested at 10 months of age. Group N2 was gavaged with 9-cis-R-Ac for 10 months and tested at 14 months of age. Group N3, was gavaged with vehicle until 10 months of age and then received 9-cis-R-Ac monthly until testing at 14 months of age.
The nature of series [3]: Hepatic retinoic acid levels after long-term treatment. The format is in vivo, mouse. Conditions: all groups. On the procedure: To evaluate the safety of long-term administration of 9-cis-R-Ac, A2E accumulation was measured (FIG. 6A), because retinals spontaneously condense to this compound (Mata, N. L., Weng, J. & Travis, G. H. Proceedings of the National Academy of Sciences of the United States of America 97, 7154-7159 (2000); Parish, C. A., Hashimoto, M., Nakanishi, K., Dillon, J. & Sparrow, J. Proceedings of the National Academy of Sciences of the United States of America 95, 14609-14613 (1998)).
Analysis of retinoic acid in the liver was carried out as described before (Batten, M. L., et al. PLoS Medicine 2, e333 (2005)) by an Agilent 1100 HPLC with two tandem normal phase columns: a Varian Microsorb Silica 3 μm, 4.6×100 mm (Varian, Palo Alto, Calif.) and an Ultrasphere-Si, 5 μm, 4.6×250 mm column. An isocratic solvent system of 1000:4.3:0.675 hexane:2-propanol:glacial acetic acid (v/v) was used at a flow rate of 1 ml/min at 20° C. with detection at 355 nm. Calibration was done with standards of all-trans-RA and 9-cis-RA purchased from Sigma-Aldrich.

Series [4] has as its system C57BL/6 female mice. The series can be described thus: Single flash ERG analyses after long-term treatment. Type of series: in vivo, mouse. The following applies: for a- and b-wave amplitudes, scotopic and photopic single flash ERG: 80 mg/kg.
Source text: To evaluate the effects of rod- and cone-mediated light responses after long-term 9-cis-R-Ac treatments, mice were examined by non-invasive ERG methods. The first set of analyses was done at 4 and 10 months of age. Under scotopic conditions, the amplitudes of a-waves decreased with age, especially at high flash intensities (C1 versus C0 group, FIG. 4A, left top panel), whereas the changes in b-waves were less evident (FIG. 4A, right top panel).
The second set of analyses was done at 14 months of age.
Six groups of mice were studied (FIG. 1B).
Two weeks after the last gavage with either, 9-cis-R-Ac, all-trans-R-Ac or vehicle, groups of 48 hr dark-adapted mice were analyzed for recovery of dark adaptation after light exposure, purified rhodopsin/opsin and retinoids in the eye and retinal morphology (FIG. 1C; Methods). Mice were exposed to light of intensity 500 cd·m^−2 that bleached ˜90% of rhodopsin, anesthetized and monitored by ERG for one hr to evaluate recovery of dark adaptation. Rhodopsin was purified and rhodopsin/opsin ratios was determined. Retinoid analyses were performed on dissected eyes removed at 0, 10, 30, and 60 min after exposure to the same amount of light. Mice used to evaluate retinal morphology were not exposed to photobleaching prior to analysis.
as §1

Consider `CC(=O)OC/C=C(C)/C=C/C=C(C)\C=C\C1=C(C)CCCC1(C)C` [9-cis-R-Ac, 9-cis-retinyl acetate], for which the “functional a- and b-wave amplitudes, single-flash ERG” value with C57BL/6 female mice [1] is “slightly increased”. Further, the “tolerability of long-term treatment” value in series [2] was “well tolerated”. Further, the “hepatic retinoic acid levels” value in series [3] is reported as “below detectable levels; also recorded: did not accumulate”. The “a- and b-wave amplitudes, scotopic and photopic single flash ERG” value is “slight improvement; also recorded: significantly improved; also recorded: increased significantly” in the series with C57BL/6 female mice [4] (10 months of age, monthly gavage ~80 mg/kg for 6 months (N1 vs C1), high flash strengths, except a-waves under photopic conditions); “No significant differences; also recorded: largely disappeared” in the series with C57BL/6 female mice [4] (14 months of age, monthly gavage ~80 mg/kg (9-cis-R-Ac: N2 and N3), vs control C2). Also, the “sensitivities and maximal a-wave amplitudes estimated from a-wave maximal responses” value in the series on C57BL/6 female mice [4] (14 months of age, dark-adapted mice, treated vs control) was “not to be significantly different”.
